# Results: BindingDB's records for doi:10.1021/acs.jmedchem.8b01908 (Chinese Academy of Sciences, 2019)
# Positions of bridges follow the written chain, without caps; N, C: chain ends. Residues, ends and D or L forms follow the SMILES beside them.
# Assay: Inhibition of the intrinsic peri-cellular uPA in mouse CT26 cells assessed as reduction in cell invasion measured every hour by transwell assay
row,IC50 [µM],SMILES
1,5.02,CC[C@H](C)[C@@H]1NC(=O)[C@H](Cc2ccc(O)cc2)NC(=O)[C@H](CCCNC(=N)N)NC(=O)[C@H](CO)NC(=O)[C@H](Cc2ccc(O)cc2)NC(=O)[C@H](C)NC(=O)[C@@H]2CCCN2C(=O)[C@@H](NC(C)=O)CSSC[C@@H](C(N)=O)NC(=O)CNC1=O (Ac-CPAYSRYIGC-NH2; disulfide 1-10)
2,3.28,CC[C@H](C)[C@@H]1NC(=O)[C@H](Cc2ccc(O)cc2)NC(=O)[C@H](CCCNC(=N)N)NC(=O)[C@H](CO)NC(=O)[C@H](Cc2ccc(O)cc2)NC(=O)[C@H](C)NC(=O)[C@@H]2CCCN2C(=O)[C@@H](N)CSSC[C@@H](C(=O)O)NC(=O)CNC1=O (H-CPAYSRYIGC-OH; disulfide 1-10)

row,SMILES,IC50 [µM]
1,CC(=O)N[C@H]1CSSC[C@@H](C(N)=O)NC(=O)[C@H](CC(=O)O)NC(=O)[C@H](CC(C)C)NC(=O)[C@H](Cc2ccc(O)cc2)NC(=O)[C@H](CCCNC(=N)N)NC(=O)[C@H](CO)NC(=O)[C@H](Cc2ccc(O)cc2)NC(=O)[C@H](C)NC(=O)[C@@H]2CCCN2C1=O (Ac-CPAYSRYLDC-NH2; disulfide 1-10),39.4
